Assay results from patent publication US20240116946A1 (Gilead Sciences, Inc., priority 2022, published 2024).
Read-outs that look alike come from different tables or passages of the source.

Key:
[1] = biological target: recombinant SARS-CoV-2 Main protease (Mpro) (Severe acute respiratory syndrome coronavirus 2 (2019-nCoV) (SARS-CoV-2), UniProt P0DTD1); assay: Cov Mpro Biochemical IC50 Assay; settings: recombinant SARS-CoV-2 Mpro 7.5 nM, fluorogenic peptide substrate 40 μM; read-out: MPro IC50
[2] = system: SARS-CoV-2-NLuc; assay: microbe, parasite or virus in culture; assay type: cell-based, SARS Coronavirus 2
[3] = Severe acute respiratory syndrome coronavirus, 48 h; read-out: MPro EC50
[4] = Severe acute respiratory syndrome coronavirus, 48 h, read-out: MPro EC50

| SMILES | IC50 [1] [nM] | EC50 [2, 3] [nM] | EC50 [2, 4] [nM] |
| --- | --- | --- | --- |
| Cc1c(F)cncc1-n1c(=O)c2sc(-c3ccccc3C#N)cc2n(CCC#N)c1=O [Example 848] | 34.5 | 137 |  |
| COc1cc(-c2cc3c(s2)c(=O)n(-c2cncc(F)c2C)c(=O)n3CCC#N)c(C#N)cc1F [Example 849] | 12.8 |  | 30.4 |
| Cc1c(F)cncc1-n1c(=O)c2sc(-c3cc(F)c(F)cc3Cl)cc2n(CCC#N)c1=O [Example 850] | 26.7 | 54.2 |  |
| Cn1cnc2cncc(-n3c(=O)c4sc(-c5ccc(F)cc5Cl)cc4n(CCC#N)c3=O)c21 [Example 851] | 22.3 | 75.3 |  |
| Cn1cnc2cncc(-n3c(=O)c4sc(-c5cc(F)c(F)cc5Cl)cc4n(CCC#N)c3=O)c21 [Example 852] | 27.4 | 104 |  |
| Cc1nc2cncc(-n3c(=O)c4sc(-c5ccc(F)cc5Cl)cc4n(CCC#N)c3=O)c2n1C [Example 853, 3-(6-(2-chloro-4-fluorophenyl)-3-(1,2-dimethyl-1H-imidazo[4,5-c]pyridin-7-yl)-2,4-dioxo-3,4-dihydrothieno[3,2-d]pyrimidin-1(2H)-yl)propanenitrile] | 26.8 |  | 102 |
| Cc1nc2cncc(-n3c(=O)c4sc(-c5ccccc5C#N)cc4n(CCC#N)c3=O)c2n1C [Example 854] | 93.3 |  | > 1000 |
| COc1cc(-c2cc3c(s2)c(=O)n(-c2cncc4nc(C)n(C)c24)c(=O)n3CCC#N)c(C#N)cc1F [Example 855] | 19 |  | 498 |
| COc1cc(-c2cc3c(s2)c(=O)n(-c2cncc4nc(C(F)(F)F)n(C)c24)c(=O)n3CCC#N)c(Cl)cc1F [Example 856, 3-(6-(2-chloro-4-fluoro-5-methoxyphenyl)-3-(1-methyl-2-(trifluoromethyl)-1H-imidazo[4,5-c]pyridin-7-yl)-2,4-dioxo-3,4-dihydrothieno[3,2-d]pyrimidin-1(2H)-yl)propanenitrile] | 23.2 |  | 46.1 |
| Cn1c(C(F)(F)F)nc2cncc(-n3c(=O)c4sc(-c5ccc(F)cc5Cl)cc4n(CCC#N)c3=O)c21 [Example 857] | 161 | 348 |  |
| Cn1c(C(F)(F)F)nc2cncc(-n3c(=O)c4sc(-c5ccccc5C#N)cc4n(CCC#N)c3=O)c21 [Example 858] | 263 |  | 741 |
| COc1cc(-c2cc3c(s2)c(=O)n(-c2cncc4nc(C(F)(F)F)n(C)c24)c(=O)n3CCC#N)c(C#N)cc1F [Example 859] | 62.8 |  | 169 |
| Cc1nc2cncc(-n3c(=O)c4sc(-c5cc(F)c(F)cc5Cl)cc4n(CCC#N)c3=O)c2n1C [Example 860] | 39.4 |  | 212 |
| COc1cc(-c2cc3c(s2)c(=O)n(-c2cnccc2C(F)(F)F)c(=O)n3CCC#N)c(Cl)cc1F [Example 861] | 35.8 |  | 68.9 |
| COc1cc(-c2cc3c(s2)c(=O)n(-c2cnccc2C(F)(F)F)c(=O)n3CCC#N)c(C#N)cc1F [Example 862] | 95.3 |  | 210 |
| N#CCCn1c(=O)n(-c2cncc(Cl)c2)c(=O)c2sc(-c3ccccc3C#N)cc21 [Example 863] | 13.3 | 37.6 |  |
| N#CCCn1c(=O)n(-c2cncc(F)c2)c(=O)c2sc(-c3ccccc3C#N)cc21 [Example 864] | 53.2 | 150 |  |
| COc1cc(-c2cc3c(s2)c(=O)n(-c2cncc(Cl)c2)c(=O)n3CCC#N)c(C#N)cc1F [Example 866] | 5.61 |  | 12.9 |
| COc1cc(-c2cc3c(=O)n(-c4cncc5ccccc45)c(=O)n(CCC#N)c3s2)c(Cl)cc1F [Example 867] | 9.82 |  | 13.1 |
| COc1cc(-c2cc3c(s2)c(=O)n(-c2cncc(C#N)c2C)c(=O)n3CCC#N)c(Cl)cc1F [Example 868] | 9.86 |  | 26.1 |
| COc1cc(-c2cc3c(s2)c(=O)n(-c2cncc(C(F)(F)F)c2)c(=O)n3CCC#N)c(Cl)cc1F [Example 869] | 23.9 |  | 73 |
| COc1cncc(-n2c(=O)c3sc(-c4cc(OC)c(F)cc4Cl)cc3n(CCC#N)c2=O)c1 [Example 870] | 2.89 |  | 3.41 |
| COc1cc(-c2cc3c(s2)c(=O)n(-c2cncc(OC)c2C)c(=O)n3CCC#N)c(Cl)cc1F [Example 871] | 75.3 |  | 220 |
| COc1cc(-c2cc3c(s2)c(=O)n(-c2cncc(OC(F)F)c2)c(=O)n3CCC#N)c(Cl)cc1F [Example 872] | 8.39 |  | 37.3 |
| COc1cc(-c2cc3c(s2)c(=O)n(-c2cncc(N4CCOCC4)c2)c(=O)n3CCC#N)c(Cl)cc1F [Example 873] | 263 |  | > 1000 |
| COc1cc(-c2cc3c(s2)c(=O)n(-c2cncc(N(C)C)c2)c(=O)n3CCC#N)c(Cl)cc1F [Example 874] | 41.4 |  | 204 |
| Cc1cncc(-n2c(=O)c3sc(-c4ccccc4C#N)cc3n(CCC#N)c2=O)c1 [Example 875] | 9.81 | 32.4 |  |

| SMILES | IC50 [1] [nM] | EC50 [2, 3] [nM] | EC50 [2, 4] [nM] |
| --- | --- | --- | --- |
| COc1cc(-c2cc3c(s2)c(=O)n(-c2cncc(C)c2)c(=O)n3CCC#N)c(C#N)cc1F [Example 876] | 2.76 |  | 6.25 |
| Cn1nnc2cncc(-n3c(=O)c4sc(-c5ccccc5C#N)cc4n(CCC#N)c3=O)c21 [Example 877] | 54.1 |  | 216 |
| COc1cc(-c2cc3c(s2)c(=O)n(-c2cncc4nnn(C)c24)c(=O)n3CCC#N)c(C#N)cc1F [Example 878] | 15.8 |  | 90 |
| Cc1cncc(-n2c(=O)c3sc(-c4cc(Cl)ccc4C#N)cc3n(CCC#N)c2=O)c1 [Example 879] | 4.33 | 20.4 |  |
| Cc1cncc(-n2c(=O)c3sc(-c4ccc(F)cc4C#N)cc3n(CCC#N)c2=O)c1 [Example 880] | 10.6 | 42.3 |  |
| Cc1cncc(-n2c(=O)c3sc(-c4cc(F)ccc4C#N)cc3n(CCC#N)c2=O)c1 [Example 881] | 11.7 | 91.9 |  |
| C#Cc1cc(F)c(OC)cc1-c1cc2c(s1)c(=O)n(-c1cncc3nnn(C4CC4)c13)c(=O)n2CCC#N [Example 882] | 26.3 |  | 69.7 |
| N#CCCn1c(=O)n(-c2cncc3nnn(C4CC4)c23)c(=O)c2sc(-c3ccc(F)cc3Cl)cc21 [Example 883] | 30.3 |  | 233 |
| COc1cnc(Cl)c(-c2cc3c(s2)c(=O)n(-c2cncc4nnn(C)c24)c(=O)n3CCC#N)c1 [Example 884] | 31.4 |  | 126 |
| COc1cnc(Cl)c(-c2cc3c(s2)c(=O)n(-c2cncc(C)c2)c(=O)n3CCC#N)c1 [Example 885] | 7.57 | 22.9 |  |
| Cn1nnc2cncc(-n3c(=O)c4sc(-c5cc(Cl)ccc5C#N)cc4n(CCC#N)c3=O)c21 [Example 886] | 36.1 |  | 144 |
| COc1cnc(C#N)c(-c2cc3c(s2)c(=O)n(-c2cncc(C)c2)c(=O)n3CCC#N)c1 [Example 887] | 10.4 | 65.4 |  |
| N#CCCn1c(=O)n(-c2cncc(C(F)F)c2)c(=O)c2sc(-c3ccccc3C#N)cc21 [Example 888] | 25.8 | 91.5 |  |
| COc1cnc(Cl)c(-c2cc3c(s2)c(=O)n(-c2cncc(C(F)F)c2)c(=O)n3CCC#N)c1 [Example 889] | 14.2 | 64.8 |  |
| N#CCCn1c(=O)n(-c2cncc(C(F)(F)F)c2)c(=O)c2sc(-c3ccccc3C#N)cc21 [Example 890] | 75 | 247 |  |
| COc1cc(-c2cc3c(s2)c(=O)n(-c2cnc(F)c(C)c2)c(=O)n3CCC#N)c(Cl)cc1F [Example 891] | 9.38 |  | 29.6 |
| COc1cc(-c2cc3c(s2)c(=O)n(-c2nncc4c(C)nn(C)c24)c(=O)n3CCC#N)c(Cl)cc1F [Example 892] | 13.5 |  | 32.9 |
| COc1cc(-c2cc3c(s2)c(=O)n(-c2cnccn2)c(=O)n3CCC#N)c(Cl)cc1F [Example 893] | 22.1 |  | 136 |
| COc1cc(-c2cc3c(s2)c(=O)n(-c2cncc(C)n2)c(=O)n3CCC#N)c(Cl)cc1F [Example 894] | 3.2 |  | 6.55 |
| COc1cc(-c2cc3c(s2)c(=O)n(-c2cncc4nn(C)c(C)c24)c(=O)n3CCC#N)c(C#N)cc1F [Example 895] | 8.43 |  | 218 |
| Cc1c2c(-n3c(=O)c4sc(-c5ccccc5C#N)cc4n(CCC#N)c3=O)cncc2nn1C [Example 896] | 59.2 | 479 |  |
| COc1cc(-c2ccc3c(=O)n(-c4cncc5ccccc45)c(=O)n(CC#N)c3c2)c(Cl)cc1F [Example 897] | 11.2 |  | 85.4 |
| COc1cc(-c2cc3c(s2)c(=O)n(-c2cncc4cnn(C)c24)c(=O)n3C)c(Cl)cc1F [Example 898, 6-(2-chloro-4-fluoro-5-methoxyphenyl)-1-methyl-3-(1-methyl-1H-pyrazolo[4,3-c]pyridin-7-yl)thieno[3,2-d]pyrimidine-2,4(1H,3H)-dione] | 13 |  | 11.9 |
| COc1cc(-c2cc3c(s2)c(=O)n(-c2cncc4cccc(F)c24)c(=O)n3CCC#N)c(Cl)cc1F [Example 901, 3-(6-(2-chloro-4-fluoro-5-methoxyphenyl)-3-(5-fluoroisoquinolin-4-yl)-2,4-dioxo-3,4-dihydrothieno[3,2-d]pyrimidin-1(2H)-yl)propanenitrile] | 2.53 |  | 5.16 |
| COc1ccc(C#N)c(-c2cc3c(cc2F)c(=O)n(-c2cncc4ccccc24)c(=O)n3CCC#N)c1 [Example 902] | 87.3 |  | 134 |
| COc1cc(-c2nc3c(s2)c(=O)n(-c2cncc4ccccc24)c(=O)n3CCC#N)c(Cl)cc1F [Example 903] | 8.52 |  | 13.1 |
| COc1cc(-c2cc3c(s2)c(=O)n(-c2cncc4cccnc24)c(=O)n3CCC#N)c(Cl)cc1F [Example 904, 3-(6-(2-chloro-4-fluoro-5-methoxyphenyl)-3-(1,6-naphthyridin-8-yl)-2,4-dioxo-3,4-dihydrothieno[3,2-d]pyrimidin-1(2H)-yl)propanenitrile] | 4.29 |  | 1.34 |
